System: ATDC5 cells
Experiment: Induction of chondrogenic differentiation of ATDC5 cells (Alcian blue staining of proteoglycan)
Assay type: cell-based
Conditions: ATDC5 cells incubated for 24 days; compound (1) at 1-10000 ng/ml; results in FIG. 1
Method: The inducing activity by the compound (1) on chondrogenic differentiation was evaluated in accordance with the below-mentioned method.
(1) The ATDC5 cell line provided by RIKEN Cell Bank (Tsukuba, Japan) was grown in a 1:1 mixture of Dulbecco's modified Eagle's medium and Ham's F12 medium (Nikken Biomedical Laboratory, Kyoto, Japan) supplemented with 10% heat-inactivated fetal bovine serum (Intergen, Purchase, N.Y.).
(2) The above ATDC5 cells were plated in 12-multiwell plastic plate at a density of 1×10^5 cells/well in the medium. After 4 hr, the medium was replaced with fresh medium containing the compound (1) or Cyclosporin A (CsA), and the culture was continued for a 24 days with medium change every 2 or 3 days. Cells were fixed with methanol and stained 0.1% Alcian blue (Sigma Chemical Co., St. Louis, Mo.) dissolved in 0.1 M hydrochloric acid for 16 hr at room temperature. Cells were then rinsed three times with distilled water, and the amount of cell-associated dye was measured at 620 nm after extraction with 6 M guanidine-HCl (300 μl/well)
ATDC5 cells were incubated with the compound (1) or CsA for 24 days and the amount of proteoglycan was assayed.

## Cyclosporin A [CsA]
  chondrogenic differentiation (amount of proteoglycan, cell-associated Alcian blue dye measured at 620 nm): did not induce the differentiation

## COC1CC(/C=C(\C)C2OC(=O)C3CCCCN3C(=O)C(=O)C3(O)OC(C(OC)CC(C)C/C(C)=C/C(CC(C)=O)C(=O)CC(O)C2C)C(OC)CC3C)CCC1O (centres unmarked) [compound (1)]
  chondrogenic differentiation (amount of proteoglycan, cell-associated Alcian blue dye measured at 620 nm): induced differentiation into chondrocyte in a concentration-dependent manner
